This note sets out measurements from ChEMBL document CHEMBL1201862, “PubChem BioAssay data set” (2004).

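Interpolation was linear, between the two tested concentrations surrounding the appropriate level; five concentrations were tested over 48 hours in 96-well plates. GI50 is the concentration that inhibits growth by half.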 Active and inactive are the calls of the source. Cut-off read from the data, not from the text of the source: active = GI50 up to about 1.1 µM and inactive = higher.

Holding throughout (experiment): NCI-60 cell line screen, 48 h
Assay [1] concerns TK-10.
Assay [2] has as its system OVCAR-3.
In assay [3] the test system is OVCAR-8.
The test system of assay [4] is EKVX.
The subject of assay [5] is UACC-62.
Assay [6] deals with RPMI-8226.
The subject of assay [7] is CAKI-1.
For assay [8], the system named is SK-MEL-2.
In assay [9] the test system is UACC-257.
The subject of assay [10] is SF-295.
In assay [11] the test system is 786-0.
The test system of assay [12] is NCI/ADR-RES.
Assay [13] has as its system A498.
Assay [14] deals with RXF 393.
In assay [15] the test system is SNB-19.
The test system of assay [16] is MCF7.
Assay [17] has as its system SR.
The test system of assay [18] is KM12.
Assay [19] has as its system SF-268.
The test system of assay [20] is SK-MEL-28.

Take `O=[N+]([O-])c1ccc(Sc2c3ccccc3nc3ccccc23)nc1`: the GI50 in assay [1] is 2.96 µM (inactive); in [2], 5.74 µM (inactive); in assay [3], 22 µM (inactive); in [4], 17 µM (inactive); in [5], 15.3 µM (inactive); in assay [6], 2.21 µM (inactive). Besides, the GI50 in [7] is 4.88 µM (inactive); in assay [8], 20.4 µM (inactive); in [9] it was 7.06 µM (inactive); in assay [10], 26.1 µM (inactive); in assay [11], 2.2 µM (inactive); in [12] it was 19 µM (inactive). Further, the GI50 in assay [13] was 18.5 µM (inactive); in assay [14], 3.28 µM (inactive); in [15], 18.4 µM (inactive); in assay [16], 3.79 µM (inactive); in assay [17] it was 2.47 µM (inactive); in assay [18], 23.8 µM (inactive). Besides, the GI50 in [19] is 8.71 µM (inactive); in assay [20], 4.75 µM (inactive).

Consider `CO/C(N)=C(C#N)/N=C/c1ccccc1`, for which the GI50 in assay [1] was > 100 µM (inactive); in assay [2], > 100 µM (inactive); in assay [3], > 100 µM (inactive); in assay [4], 66.7 µM (inactive); in assay [5], 48 µM (inactive); in assay [6], > 100 µM (inactive). For the same molecule, the GI50 in assay [7], in [8], in assay [9], in [10], in [11] and in assay [12] was > 100 µM (inactive) in each case. The GI50 in assay [13] was > 100 µM (inactive); in assay [14] it was > 100 µM (inactive); in assay [15], 66.2 µM (inactive); in assay [16], 31.8 µM (inactive); in [17], > 100 µM (inactive); in assay [18], > 100 µM (inactive). Also, the GI50 in [19] and in assay [20] was > 100 µM (inactive) each time.

Turning to `C=CCC(CC=O)(C(=O)OCC)C(=O)OCC`, the GI50 in [1], in assay [2], in assay [3], in assay [4], in assay [5] and in [6] was > 100 µM (inactive) throughout. Also, the GI50 in [7], in [8], in [9], in assay [10], in assay [11] and in [12] was > 100 µM (inactive) in each case. Moreover, the GI50 in [13], in [14], in [15], in [16], in assay [17] and in assay [18] was > 100 µM (inactive) in each case. Moreover, the GI50 in assay [19] and in assay [20] was > 100 µM (inactive) throughout.

For `COC(=O)C(Cc1ccccc1I)C1=CCC2(CC1)OCCO2` (stereo not given), the GI50 in assay [1] is 31.6 µM (inactive); in assay [2], 20.8 µM (inactive); in assay [3] it was 35.2 µM (inactive); in assay [4] it was 47.6 µM (inactive); in assay [5], 20 µM (inactive); in [6], 30 µM (inactive). The GI50 in assay [7] is 70 µM (inactive); in assay [8], 25.5 µM (inactive); in assay [9], 27.1 µM (inactive); in assay [10], 29.2 µM (inactive); in assay [11], 34.3 µM (inactive); in assay [12], 18.6 µM (inactive). Besides, the GI50 in assay [13] was 74.1 µM (inactive); in assay [14], 14.2 µM (inactive); in [15], 25.4 µM (inactive); in [16], 27.7 µM (inactive); in assay [17] it was 18 µM (inactive); in [18], 22.9 µM (inactive). Moreover, the GI50 in [19] is 41.3 µM (inactive); in assay [20], 48.9 µM (inactive).

For the molecule `CCOC(=O)c1c(N2CCN(C)CC2)[nH]c(=O)c(C(c2c(Cl)cccc2Cl)c2c(O)c(C(=O)OCC)c(N3CCN(C)CC3)[nH]c2=O)c1O`, the GI50 was 30.5 µM (inactive) in [1]; 34.8 µM (inactive) in assay [2]; 22 µM (inactive) in assay [3]; 14.5 µM (inactive) in [4]; 21.5 µM (inactive) in [5]; 39.2 µM (inactive) in [6]. Also, the GI50 is 26.5 µM (inactive) in [7]; 26 µM (inactive) in assay [8]; 21.3 µM (inactive) in assay [9]; 28.1 µM (inactive) in assay [10]; 27.7 µM (inactive) in [11]; 71.1 µM (inactive) in assay [12]. For the same molecule, the GI50 in assay [13] is 22.1 µM (inactive); in assay [14], 18.2 µM (inactive); in assay [15], 20.4 µM (inactive); in [16] it was 29.5 µM (inactive); in assay [17], 21.9 µM (inactive); in assay [18], 23.5 µM (inactive). The GI50 in assay [19] was 24.2 µM (inactive); in [20], 17.9 µM (inactive).

For the molecule `CC(C)(C)c1cc(C(=O)/C=C/c2ccc(O)c(O)c2O)cc(C(C)(C)C)c1O`, the GI50 is 3.57 µM (inactive) in assay [1]; 3.52 µM (inactive) in assay [2]; 4.07 µM (inactive) in [3]; 4.83 µM (inactive) in assay [4]; 4.54 µM (inactive) in assay [5]; 1.59 µM (inactive) in assay [6]. Further, the GI50 in assay [7] was 3.21 µM (inactive); in [8], 4.41 µM (inactive); in assay [9], 3.05 µM (inactive); in [10], 5.41 µM (inactive); in assay [11] it was 4.43 µM (inactive); in [12], 1.69 µM (inactive). In addition, the GI50 in assay [13] is 14 µM (inactive); in assay [14] it was 2.84 µM (inactive); in assay [15], 2.56 µM (inactive); in assay [16] it was 4.6 µM (inactive); in assay [17] it was 1.45 µM (inactive); in assay [18], 2.58 µM (inactive). For the same molecule, the GI50 in [19] was 5.3 µM (inactive); in [20], 5.01 µM (inactive).

With `CCOc1cc2c(OCc3ccccc3)cc3c4cc(OC)c(OC)cc4c[n+](C)c3c2cc1OC`, the GI50 in [1] was 10.3 µM (inactive); in [2], 1.06 µM (active); in assay [3], 2.19 µM (inactive); in [4], 17.8 µM (inactive); in assay [5] it was 1.27 µM (inactive); in [6] it was 2.06 µM (inactive). For the same molecule, the GI50 is 25.4 µM (inactive) in assay [7]; 1.22 µM (inactive) in assay [8]; 1.62 µM (inactive) in assay [9]; 8.57 µM (inactive) in assay [10]; 2.74 µM (inactive) in [11]; > 100 µM (inactive) in assay [12]. For the same molecule, the GI50 in assay [13] was 22.2 µM (inactive); in [14], 2.4 µM (inactive); in assay [15], 0.385 µM (active); in [16], 0.671 µM (active); in assay [17], 0.631 µM (active); in assay [18], 1.15 µM (inactive). Besides, the GI50 in assay [19] was 0.492 µM (active); in [20], 1.36 µM (inactive).

Consider `O=C1/C(=C/c2ccccc2)CCC/C1=C\c1ccc(O)c(CN2CCCCC2)c1`, for which the GI50 is 15.2 µM (inactive) in assay [1]; 6.98 µM (inactive) in assay [2]; 3.78 µM (inactive) in assay [3]; 6.75 µM (inactive) in assay [4]; 3.59 µM (inactive) in [5]; 3.27 µM (inactive) in assay [6]. In addition, the GI50 in [7] is 8.07 µM (inactive); in assay [8], 11.9 µM (inactive); in assay [9], 5.53 µM (inactive); in assay [10], 5.35 µM (inactive); in assay [11], 1.69 µM (inactive); in [12], 2.69 µM (inactive). For the same molecule, the GI50 was 5.37 µM (inactive) in assay [13]; 13.8 µM (inactive) in assay [14]; 9.35 µM (inactive) in assay [15]; 4.32 µM (inactive) in assay [16]; 1.05 µM (active) in assay [17]; 0.933 µM (active) in assay [18]. For the same molecule, the values for the GI50 in assay [19] and in assay [20] were 5.07 µM (inactive) and 6.92 µM (inactive), respectively.

With `CC(=O)O[C@H]1C(=O)[C@@]2(C)[C@H]([C@H](OC(=O)c3cccc([N+](=O)[O-])c3)[C@]3(O)C[C@H](OC(=O)[C@H](O)[C@@H](NC(=O)c4ccccc4)c4ccccc4)C(C)=C1C3(C)C)[C@]1(OC(C)=O)CO[C@@H]1C[C@@H]2O`, the GI50 in [1] was 0.0495 µM (active); in [2], < 0.0025 µM (active); in assay [3], 0.00785 µM (active); in assay [4], 2.78 µM (inactive); in [5], 0.0153 µM (active); in assay [6], 0.00341 µM (active). Besides, the GI50 in assay [7] was 0.241 µM (active); in assay [8] it was 0.0126 µM (active); in [9] it was < 0.0025 µM (active); in [10], 0.0155 µM (active); in [11] it was 0.0159 µM (active); in assay [12], 5.52 µM (inactive). Besides, the GI50 is 0.005 µM (active) in assay [13]; 0.0133 µM (active) in [14]; 0.00652 µM (active) in [15]; 0.00423 µM (active) in [16]; 0.00447 µM (active) in [17]; 0.0047 µM (active) in assay [18]. The GI50 in [19] is 0.021 µM (active); in assay [20], 0.0157 µM (active).

`CCCC(=O)Nc1cc(/C=C/C(=O)N2CC(CCl)c3ccc([N+](=O)[O-])cc32)n(C)c1` (stereo not given): the GI50 in assay [1] is 20 µM (inactive); in [2], > 100 µM (inactive); in [3] it was 30.3 µM (inactive); in [4], > 100 µM (inactive); in [5], > 100 µM (inactive); in assay [6], 14.5 µM (inactive). The GI50 in assay [7] was 57.5 µM (inactive); in assay [8], > 100 µM (inactive); in assay [9] it was > 100 µM (inactive); in [10], 44.1 µM (inactive); in [11], 62.4 µM (inactive); in [12], 30.7 µM (inactive). Further, the GI50 in [13] was < 0.01 µM (active); in assay [14], > 100 µM (inactive); in assay [15], > 100 µM (inactive); in assay [16], 68.7 µM (inactive); in assay [17], > 100 µM (inactive); in assay [18], 19.5 µM (inactive). Moreover, the results for the GI50 in [19] and in assay [20] were 43.7 µM (inactive) and > 100 µM (inactive), respectively.
